The supplement of paper PMC10307832

How the values were obtained:
Assay in all cases: relative viability (nuclei count vs DMSO), 5 days (fraction); higher = more cells survive
[1] = tested on: NCI-H23
In short: (§1)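 The day after seeding in 1536-well plates, lung cancer cell lines were treated by pin tool with a single drug, or with a fixed anchor-drug dose together with five library-drug doses (not always all listed) in √10 steps. After 5 days, a combined fix-and-stain solution (final 0.05% Triton X-100, 1% formaldehyde, 1 ug/ml Hoechst) was added. Nuclei counted on 4× images gave relative viability as treated counts over vehicle counts, reported as the median of duplicate plates.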

[2] = tested on: EPLC-272H
In short: as §1

[3] = tested on: H3255
In short: as §1

[4] = tested on: PC-14
In short: as §1

[5] = tested on: 201T
In short: as §1

[6] = tested on: COR-L 105
In short: as §1

[7] = tested on: NCI-H2126
In short: as §1

[8] = tested on: NCI-H2347
In short: as §1

[9] = tested on: NCI-H520
In short: as §1

[10] = tested on: HCC-78
In short: as §1

[11] = tested on: LCLC-97TM1
In short: as §1

## Nc1ccn([C@@H]2O[C@H](CO)[C@@H](O)[C@@H]2O)c(=O)n1 [Cytarabine] + C[C@]1(O)C[C@@H](c2nc(-c3ccc4ccc(-c5ccccc5)nc4c3)c3c(N)nccn32)C1 [Linsitinib] (partner 1 µM)
[1]; first compound 0.005 µM
  relative viability: 0.544
[1]; first compound 0.01581 µM
  relative viability: 0.417
[1]; first compound 0.05 µM
  relative viability: 0.294
[1]; first compound 0.1581 µM
  relative viability: 0.157
[1]; first compound 0.5 µM
  relative viability: 0.14
[2]; first compound 0.005 µM
  relative viability: 0.883
[2]; first compound 0.01581 µM
  relative viability: 0.834
[2]; first compound 0.05 µM
  relative viability: 0.945
[2]; first compound 0.1581 µM
  relative viability: 0.522
[2]; first compound 0.5 µM
  relative viability: 0.532
[3]; first compound 0.005 µM
  relative viability: 0.945
[3]; first compound 0.01581 µM
  relative viability: 0.885
[3]; first compound 0.05 µM
  relative viability: 0.808
[3]; first compound 0.1581 µM
  relative viability: 0.784
[3]; first compound 0.5 µM
  relative viability: 0.674
[4]; first compound 0.005 µM
  relative viability: 0.967
[4]; first compound 0.01581 µM
  relative viability: 0.862
[4]; first compound 0.05 µM
  relative viability: 0.761
[4]; first compound 0.1581 µM
  relative viability: 0.436
[4]; first compound 0.5 µM
  relative viability: 0.464
[5]; first compound 0.005 µM
  relative viability: 1.1
[5]; first compound 0.01581 µM
  relative viability: 1.02
[5]; first compound 0.05 µM
  relative viability: 1.03
[5]; first compound 0.1581 µM
  relative viability: 0.9
[5]; first compound 0.5 µM
  relative viability: 0.886
[6]; first compound 0.005 µM
  relative viability: 0.815
[6]; first compound 0.01581 µM
  relative viability: 1.1
[6]; first compound 0.05 µM
  relative viability: 0.628
[6]; first compound 0.1581 µM
  relative viability: 0.443
[6]; first compound 0.5 µM
  relative viability: 0.359
[7]; first compound 0.005 µM
  relative viability: 0.71
[7]; first compound 0.01581 µM
  relative viability: 0.661
[7]; first compound 0.05 µM
  relative viability: 0.647
[7]; first compound 0.1581 µM
  relative viability: 0.486
[7]; first compound 0.5 µM
  relative viability: 0.474
[8]; first compound 0.005 µM
  relative viability: 1.02
[8]; first compound 0.01581 µM
  relative viability: 0.932
[8]; first compound 0.05 µM
  relative viability: 0.822
[8]; first compound 0.1581 µM
  relative viability: 0.32
[8]; first compound 0.5 µM
  relative viability: 0.649
[9]; first compound 0.005 µM
  relative viability: 0.556
[9]; first compound 0.01581 µM
  relative viability: 1.09
[9]; first compound 0.05 µM
  relative viability: 0.952
[9]; first compound 0.1581 µM
  relative viability: 0.751
[9]; first compound 0.5 µM
  relative viability: 0.752
[10]; first compound 0.005 µM
  relative viability: 0.538
[10]; first compound 0.01581 µM
  relative viability: 0.457
[10]; first compound 0.05 µM
  relative viability: 0.432
[10]; first compound 0.1581 µM
  relative viability: 0.275
[10]; first compound 0.5 µM
  relative viability: 0.132
[11]; first compound 0.005 µM
  relative viability: 0.167
[11]; first compound 0.01581 µM
  relative viability: 0.148
